Data: US4563478A, “Method of tranquilizing” (priority 1981, dated 1986)

Assays:
[1] = system: Spinal Medulla of the Cat; experiment: Effect on the spinal medulla of the cat; format: in vivo; conditions: 3-30 mg/kg i.v.
Sacch. cerevisiae D4 = experiment: Genetic conversion; conditions: 1000-100-10 mcg/plate
animals (Rat, Mouse) = experiment: Acute toxicity, symptoms observed in the animals (rat, mouse); format: in vivo
Procedure: Observation period: 14 days
(+) from 500 mg/kg upwards, the animals show sedation symptoms.

Acute toxicity, mouse = conditions: in vivo, observation 14 days, read-out: DL50
Description: (§1) |Observation period: 14 days

[2] = system: salmonella thyphimurium, 5 different strains; experiment: Mutagenesis (Salmonella, 5 different strains); conditions: 1000-100-10 mcg/plate
Description: Mutagenesis (salmonella thyphimurium, 5 different strains): 1000-100-10 mcg/plate: negative.

[3] = system: Plasmatic Prolactin Levels (PRL); experiment: Effect of compound (V) administered intravenously to the rat on plasmatic prolactin levels (PRL); format: in vivo
Description: 4. Effect of Compound (V) Administered Intravenously to the Rat, on the Plasmatic Prolactin Levels (PRL)

EEG in Rabbits = format: in vivo
Procedure: At doses of 100 and 50 mg/kg i.v., electrical activity becomes evidently synchronous 10 minutes after administration, and lasts for about 3 hours. […] After 4 hours, behaviour and EEG become normal.

[4] = system: cGMP in the rat cerebellum; experiment: Effect on the cGMP levels in the rat cerebellum; format: in vivo; conditions: i.v., 1 hour after administration, saline = 100
Procedure: The cGMP is measured 1 hour after administration.

Schizosacch. pombe P1 = experiment: Generic mutation; conditions: 1000-100-10 mcg/plate
[5] = Sub-acute toxicity, 4 weeks; format: in vivo; conditions: daily oral and intra-peritoneal 10, 20 and 40 mg/kg/day
Procedure: After daily oral and intra-peritoneal administration of 10,20 and 40 mg/kg/day of compound (V) for 4 weeks, no effect is observed on mortality, body weight, alimentation, hematological or urinary data, autoptic examination, weight or histology of the organs.

Acute toxicity, rat = conditions: in vivo, observation 14 days, read-out: DL50
Description: as §1

[6] = orally or parenterally; cited from earlier work
[7] = line marked (+), route not given

For `O=C(O)CCCNCCC(=O)O` [Compound (V), N-β-carboxyethyl-γ-aminobutyric acid], the “activity on the gamma-mononeuron” value [1] was “dose-dependent reduction”, the dorsal root potentials [1] was “dose-dependent reduction” and the “mono and polysynaptic reflexes of the ventral root” value [1] was “dose-dependent reduction”. The Genetic conversion (Sacch. cerevisiae D4) was “doubtful”, the “mutagenic activity for the gene ADE 2” value (Sacch. cerevisiae D4) was “not for the gene ADE 2” and the “mutagenic activity for the gene TPR 5” value (Sacch. cerevisiae D4; only in the presence of a microsomial activator) was “a slight increase in mutagenic activity”. For the same compound, the “dose from which the animals show sedation symptoms” value (animals (Rat, Mouse); in vivo, po, 20160 min) was at least 500 mg/kg, the symptoms before death (animals (Rat, Mouse); intra-peritoneal (++)) was “ataxia, lack of reaction to stimuli, and dyspnea” and the LD50 at 336 h (Acute toxicity, mouse; ip, intra-peritoneal) was 783 mg/kg. The LD50 at 336 h (Acute toxicity, mouse; [7]) was 1000 mg/kg, the LD50 at 336 h (Acute toxicity, mouse; oral) was 1000 mg/kg and the Mutagenesis [2] was “negative”. It also gave a PRL levels ([3]; 100 mg/kg i.v., 0 min) of 4 ng/mL, a PRL levels ([3]; 100 mg/kg i.v., 15 min) of 18 ± 5 ng/mL and a PRL levels ([3]; 100 mg/kg i.v., 30 min) of 4 ± 6 ng/mL. For the same compound, the PRL levels ([3]; 100 mg/kg i.v., 60 min) was 4 ng/mL, the PRL levels ([3]; 200 mg/kg i.v., 0 min) was 4 ng/mL and the PRL levels ([3]; 200 mg/kg i.v., 15 min) was 49 ± 10 ng/mL. The PRL levels ([3]; 200 mg/kg i.v., 30 min) was 5 ± 1 ng/mL, the PRL levels ([3]; 200 mg/kg i.v., 60 min) was 4 ng/mL and the PRL levels ([3]; 300 mg/kg i.v., 0 min) was 4 ng/mL. For the same compound, the PRL levels ([3]; 300 mg/kg i.v., 15 min) was 78 ± 5 ng/mL, the PRL levels ([3]; 300 mg/kg i.v., 30 min) was 21 ± 8 ng/mL and the PRL levels ([3]; 300 mg/kg i.v., 60 min) was 12 ng/mL. The “effect on the prolactin release” value ([3]; intravenous, short intervals after administration) was “dose-dependent effect on the prolactin release”, the “basal activity, cortical graph” value (EEG in Rabbits; 100 and 50 mg/kg i.v.) was “replaced by a slow continuous activity prevalent on the cortical graph” and the “behaviour (sedation)” value (EEG in Rabbits; 100 and 50 mg/kg i.v.) was “sedated, but responds to stimuli”. The “desynchronisation of cortical activity by vibro-stimulation and pain stimuli” value (EEG in Rabbits; 100 and 50 mg/kg i.v.) was “do not desynchronise cortical activity”, the “duration of synchronous electrical activity” value (EEG in Rabbits; 100 and 50 mg/kg i.v.) was “about 3 hours” and the “thalamus and hippocampus activity at 4-5 Hz” value (EEG in Rabbits; 100 and 50 mg/kg i.v.) was “replaced by an irregular graph and many slow waves”. The “time after administration at which electrical activity becomes synchronous” value (EEG in Rabbits; 100 and 50 mg/kg i.v.) was 10 min, the “time after which behaviour and EEG become normal” value (EEG in Rabbits; 100 and 50 mg/kg i.v.) was 4 h and the sedative activity (EEG in Rabbits; conclusion from EEG in rabbits, i.v.) was “demonstrates sedative activity”. For the same compound, the “overcoming of the hematoencephalic barrier” value (EEG in Rabbits; rabbit, in vivo, iv) was “overcomes the hematoencephalic barrier”, the “cGMP: Relative levels” value ([4]; 1 mg/kg) was 95 ± 8 and the “cGMP: Relative levels” value ([4]; 10 mg/kg) was 68 ± 4. For the same compound, the “cGMP: Relative levels” value ([4]; 30 mg/kg) was 60 ± 5, the “cGMP: Relative levels” value ([4]; 100 mg/kg) was 74 ± 6 and the Generic mutation (Schizosacch. pombe P1) was “negative”. The effect on alimentation [5] was “no effect”, the “effect on autoptic examination” value [5] was “no effect” and the “effect on body weight” value [5] was “no effect”. For the same compound, the “effect on hematological or urinary data” value [5] was “no effect”, the effect on mortality [5] was “no effect” and the “effect on weight or histology of the organs” value [5] was “no effect”. The LD50 at 336 h (Acute toxicity, rat; ip, intra-peritoneal) was 877 mg/kg, the LD50 at 336 h (Acute toxicity, rat; [7]) was 1000 mg/kg and the LD50 at 336 h (Acute toxicity, rat; oral) was 1000 mg/kg.

For `NCCCC(=O)O` [GABA, gamma-amino butyric acid], the “crossing of the blood-brain barrier (GABA)” value [6] is listed as “does not cross the blood-brain barrier”.
